Data as given in patent US20220315624A1, “THIOSTREPTON ANALOGS AND METHODS OF MAKING AND USING SAME” (YALE UNIVERSITY, priority 2019, published 2022).
≈ marks a conversion by molar mass, not a printed value. Where two headings read alike, the source gives them in different places.

How the values were obtained:
[1] = test system: E. faecalis ATCC 29212 VSE; assay: MIC broth microdilution; type: cell-based; settings: Enterococcus faecalis, ATCC29212
Protocol: (§1) Twenty-four test agents were shipped to Micromyx and stored at −20° C. until assayed. The compounds were dissolved in 100% DMSO at 6.46 mg/mL prior to testing. Comparator drugs were supplied by Micromyx and were handled as described below:
(§2) The test organisms for the assay were recent clinical isolates or reference strains acquired from the American Type Culture Collection (ATCC; Manassas, Va.). Upon receipt, the isolates were streaked onto Trypticase Soy Agar II+5% sheep blood (TSAB). Colonies were harvested from the plates and a cell suspension was prepared in Trypticase Soy Broth containing cryoprotectant. Aliquots were then frozen at −80° C. Prior to the assay, the frozen seeds of all bacterial isolates to be tested were thawed and streaked for isolation onto TSAB (BD/BBL, Sparks, Md.; Lot No. 9011894), and were incubated overnight at 35° C.
(§3) The test medium for all isolates was cation-adjusted Mueller Hinton broth (CAMHB; BD/BBL; Lot No. 8190586). CAMHB (Cation Adjusted Mueller Hinton Broth) was supplemented with 3% (v/v) lysed horse blood (LHB; Hemostat, Dixon, Calif.; Lot No. 474990) for the testing of streptococci.
(§4) MIC values were determined using a broth microdilution method as recommended by CLSI. Automated liquid handlers (Multidrop 384, Labsystems, Helsinki, Finland; Biomek 2000 and Biomek F/X, Beckman Coulter, Fullerton Calif.) were used to conduct serial dilutions and make liquid transfers.
(§5) The wells of standard 96-well microdilution plates (Costar 3795, Corning Inc., Corning, N.Y.) were filled with 150 μL of the appropriate diluent in columns 2-12 on the Multidrop 384 (DMSO for the thiostrepton analogs, deionized H2O for vancomycin and ceftazidime). These plates were used to prepare the drug “mother plate” which provided the serial drug dilutions for the replicate “daughter plates”. The compounds (300 μL) were dispensed at 101× the highest concentration to be tested into the appropriate row of the “mother plate”. The Biomek 2000 was used to transfer 150 μL of each stock solution from the wells in Column 1 of the mother plate to make ten subsequent 2-fold serial dilutions. The wells of Column 12 contained no drug and served as the organism growth control wells. The daughter plates were loaded with 190 μL of test medium using the Multidrop 384.
(§6) The daughter plates were prepared on the Biomek F/X instrument which transferred […] of drug solution from each well of the mother plate to each corresponding well of each daughter plate in a single step. The wells of the daughter plates ultimately contained 190 μL of media, 2 μL of drug solution, and 10 μL of inoculum prepared as described below. The final concentration of DMSO (if used as a solvent) in the test well was 1%.
(§7) A standardized inoculum of each organism was prepared per CLSI methods. A suspension of organisms from a fresh plate was prepared in CAMHB to equal the turbidity of a 0.5 McFarland standard. The suspensions were diluted 1:20 in CAMHB, or in the case of streptococci CAMHB with LHB. The inoculum for each organism was dispensed into sterile reservoirs divided by length (Beckman Coulter), and the Biomek 2000 was used to inoculate the plates. Daughter plates were placed on the Biomek 2000 work surface reversed so that inoculation took place from low to high drug concentration. The Biomek 2000 delivered 10 μL of standardized inoculum into each well. These dilutions yielded a final cell concentration in the daughter plates of approximately 5.0×10^5 CFU/mL.
(§8) Plates were stacked 3 high, covered with a lid on the top plate, placed in plastic bags, and incubated at 35° C. for 16-20 hr for all organisms except streptococci which were incubated for 20-24 hr. Following incubation, the microplates were removed from the incubator and viewed from the bottom using a plate viewer. The MIC was read and recorded as the lowest concentration of drug that inhibited visible growth of the organism. […]

[2] = test system: E. coli ATCC 25922; assay: MIC broth microdilution; type: cell-based; settings: Escherichia coli, ATCC25922
Protocol: as §1, §2, §3, §4, §5, §6, §7, §8

[3] = test system: S. pneumoniae ATCC 49619 PISP; assay: MIC broth microdilution; type: cell-based; settings: Streptococcus pneumoniae, ATCC49619, 20 h
Protocol: as §1, §2, §3, §4, §5, §6, §7, §8

[4] = test system: S. pyogenes ATCC 19615; assay: MIC broth microdilution; type: cell-based; settings: Streptococcus pyogenes, ATCC19615, 20 h
Protocol: as §1, §2, §3, §4, §5, §6, §7, §8

[5] = test system: E. faecium MMX 485 VRE; assay: MIC broth microdilution; type: cell-based; settings: Enterococcus faecium
Protocol: as §1, §2, §3, §4, §5, §6, §7, §8

[6] = test system: E. faecalis MMX 486 VRE; assay: MIC broth microdilution; type: cell-based; settings: Enterococcus faecalis
Protocol: as §1, §2, §3, §4, §5, §6, §7, §8

[7] = test system: E. faecium MMX 708 VSE; assay: MIC broth microdilution; type: cell-based; settings: Enterococcus faecium, MMX708VSE
Protocol: as §1, §2, §3, §4, §5, §6, §7, §8

[8] = test system: S. aureus ATCC 29213 MSSA; assay: MIC broth microdilution; type: cell-based; settings: Staphylococcus aureus
Protocol: as §1, §2, §3, §4, §5, §6, §7, §8

[9] = test system: S. aureus MMX 8088 MRSA; assay: MIC broth microdilution; type: cell-based; settings: Staphylococcus aureus
Protocol: as §1, §2, §3, §4, §5, §6, §7, §8

[10] = Un-inoculated solubility control plate (drug precipitation); type: physicochemical; settings: for Precipitation in CAMHB: at 64 μg/mL in CAMHB
[11] = Aqueous solubility analysis in MOPS buffer; type: physicochemical; settings: aqueous 10 mM MOPS buffer, thermodynamic from solid; after 24 hours in 10 mM aqueous MOPS buffer, pH 7.2
Protocol: A 2 dram vial was loaded with ˜0.5 mg of a thiostrepton derivative and suspended in ˜4 mL of aqueous 10 mM MOPS buffer (pKa 7.2). The suspension was stirred vigorously for 24 h to ensure equilibration, then filtered through a […] centrifuge filtration unit. A 3.0 mL aliquot was concentrated, and the dried residue was diluted with 0.30 mL of 1:1 1,4-dioxane/H2O (10× original concentration necessitated by detection limits). The total UV absorbance (200-300 nm) was measured in triplicate by UPLC runs with a photodiode array detector. A calibration curve for each compound was created using data points from 3 trials each of concentrations in 1:1 1,4-dioxane/H2O ranging from […]. These concentrations were plotted against their respective average absorbances. The experimental concentration of each compound was calculated by dividing the found μg/mL value by the residue concentration factor of 10 to yield the actual solubility value.

[12] = E. faecalis ATCC 29212 VSE, CAMHB, read-out: MIC
[13] = E. coli ATCC 25922, CAMHB, read-out: MIC
[14] = S. pneumoniae ATCC 49619 PISP, CAMHB with 3% lysed horse blood, read-out: MIC
[15] = S. pyogenes ATCC 19615, CAMHB with 3% lysed horse blood, read-out: MIC
[16] = E. faecium MMX 485 VRE, CAMHB, read-out: MIC
[17] = E. faecalis MMX 486 VRE, CAMHB, read-out: MIC
[18] = E. faecium MMX 708 VSE, CAMHB, read-out: MIC
[19] = S. aureus ATCC 29213 MSSA, CAMHB, read-out: MIC
[20] = S. aureus MMX 8088 MRSA, CAMHB, read-out: MIC

| SMILES | MIC [1, 12] | MIC [2, 13] | MIC [3, 14] | MIC [4, 15] | MIC [5, 16] | MIC [6, 17] | MIC [7, 18] | MIC [8, 19] | MIC [9, 20] | Precipitation in CAMHB [10] | other results |
| --- | --- | --- | --- | --- | --- | --- | --- | --- | --- | --- | --- |
| C=C(NC(=O)c1csc(C2=N[C@@H]3c4csc(n4)[C@H]4NC(=O)c5csc(n5)[C@H]([C@](C)(O)[C@@H](C)O)NC(=O)C5CSC(=N5)/C(=C/C)NC(=O)[C@H]([C@@H](C)O)NC(=O)c5csc(n5)[C@]3(CC2)NC(=O)[C@H](C)NC(=O)C(=C)NC(=O)[C@H](C)NC(=O)[C@H]([C@@H](C)CC)N[C@@H]2C=Cc3c([C@H](C)O)cc(nc3[C@H]2O)C(=O)O[C@@H]4C)n1)C(=O)NC(=CNC(=O)c1ccc(Br)cc1)C(N)=O [RJS-08] | 0.5 µg/mL (≈ 0.268 µM) | > 64 µg/mL | < 0.001 µg/mL | 0.002 µg/mL (≈ 0.00107 µM) | 0.5 µg/mL (≈ 0.268 µM) | 0.5 µg/mL (≈ 0.268 µM) | 0.5 µg/mL (≈ 0.268 µM) | 1 µg/mL (≈ 0.537 µM) | 1 µg/mL (≈ 0.537 µM) | distinct precipitation | Precipitation in CAMHB in LHB ([10]; at 64 μg/mL in CAMHB in LHB): distinct precipitation |
| C=C(NC(=O)c1csc(C2=N[C@@H]3c4csc(n4)[C@H]4NC(=O)c5csc(n5)[C@H]([C@](C)(O)[C@@H](C)O)NC(=O)C5CSC(=N5)/C(=C/C)NC(=O)[C@H]([C@@H](C)O)NC(=O)c5csc(n5)[C@]3(CC2)NC(=O)[C@H](C)NC(=O)C(=C)NC(=O)[C@H](C)NC(=O)[C@H]([C@@H](C)CC)N[C@@H]2C=Cc3c([C@H](C)O)cc(nc3[C@H]2O)C(=O)O[C@@H]4C)n1)C(=O)NC(=CNC(=O)COCCOC)C(N)=O [RJS-10] | 1 µg/mL (≈ 0.557 µM) | > 64 µg/mL | 0.015 µg/mL (≈ 0.00835 µM) | 0.015 µg/mL (≈ 0.00835 µM) | 1 µg/mL (≈ 0.557 µM) | 1 µg/mL (≈ 0.557 µM) | 1 µg/mL (≈ 0.557 µM) | 1 µg/mL (≈ 0.557 µM) | 1 µg/mL (≈ 0.557 µM) | distinct precipitation | solubility at 24 h [11]: 19 µg/mL (≈ 10.6 µM) |
| C=C(NC(=O)c1csc(C2=N[C@@H]3c4csc(n4)[C@H]4NC(=O)c5csc(n5)[C@H]([C@](C)(O)[C@@H](C)O)NC(=O)C5CSC(=N5)/C(=C/C)NC(=O)[C@H]([C@@H](C)O)NC(=O)c5csc(n5)[C@]3(CC2)NC(=O)[C@H](C)NC(=O)C(=C)NC(=O)[C@H](C)NC(=O)[C@H]([C@@H](C)CC)N[C@@H]2C=Cc3c([C@H](C)O)cc(nc3[C@H]2O)C(=O)O[C@@H]4C)n1)C(=O)NC(=CNC(=O)c1ccc(OC)cc1)C(N)=O [RJS-07] | – | – | – | – | – | – | – | – | – | – | MIC [1]: 2 µg/mL (≈ 1.1 µM); MIC [2]: > 64 µg/mL; MIC [3]: 0.004 µg/mL (≈ 0.0022 µM); MIC [4]: 0.004 µg/mL (≈ 0.0022 µM); MIC ([5]; VRE): 1 µg/mL (≈ 0.551 µM); MIC ([6]; VRE): 1 µg/mL (≈ 0.551 µM); MIC [7]: 1 µg/mL (≈ 0.551 µM); MIC [8]: 1 µg/mL (≈ 0.551 µM); MIC ([9]; MRSA): 2 µg/mL (≈ 1.1 µM) |
| C=C(NC(=O)c1csc(C2=N[C@@H]3c4csc(n4)[C@H]4NC(=O)c5csc(n5)[C@H]([C@](C)(O)[C@@H](C)O)NC(=O)C5CSC(=N5)/C(=C/C)NC(=O)[C@H]([C@@H](C)O)NC(=O)c5csc(n5)[C@]3(CC2)NC(=O)[C@H](C)NC(=O)C(=C)NC(=O)[C@H](C)NC(=O)[C@H]([C@@H](C)CC)N[C@@H]2C=Cc3c([C@H](C)O)cc(nc3[C@H]2O)C(=O)O[C@@H]4C)n1)C(=O)NC(=CNC(=O)c1cccc(/C=N/OC(C)(C)C(=O)O)c1)C(N)=O [RJS-13] | 2 µg/mL (≈ 1.05 µM) | > 64 µg/mL | 0.015 µg/mL (≈ 0.00784 µM) | 0.015 µg/mL (≈ 0.00784 µM) | 1 µg/mL (≈ 0.523 µM) | 1 µg/mL (≈ 0.523 µM) | 1 µg/mL (≈ 0.523 µM) | 1 µg/mL (≈ 0.523 µM) | 1 µg/mL (≈ 0.523 µM) | – | – |
